Values after ≈ are worked out from the molar mass of the structure shown. Where two headings read alike, the source gives them in different places. Non-standard residues stand in square brackets, D forms with d. Residues, ends and D or L forms follow the SMILES beside them.
Columns and labels:
S. aureus strains = assay: Inhibition of bacterial surface attachment (crystal violet); format: cell-based, Staphylococcus aureus
Method: To investigate the inhibitory effect of KLK and mKLK peptides on bacterial surface attachment and biofilm formation, the bacterial suspension in TSB with a concentration of 10^7 CFU/ml was prepared from overnight culture. An aliquot of 100 μl of the bacterial suspension was added to wells of 96-well plates containing 100 μl of the peptides solution with concentrations of 1×, 1/2× and 1/4× MIC, resulting in the final peptides concentrations of 1/2×, 1/4× and 1/8× MIC. To investigate the inhibitory effect of the peptides on surface attachment the incubation was performed at 37 °C for 2 h and to evaluate their inhibitory activity on biofilm formation the incubation was performed at 37 °C for 24 h. The wells containing only TSB medium were used as negative controls. After incubation, the contents of the wells were removed and washed three times with PBS and the wells were stained with 200 μl of 0.1% crystal violet for 20 min. The plates were washed again and excess dye was removed. A volume of 200 μl of 95% ethanol was added to each well for 20 min and absorbance was measured at 570 nm by a microplate reader.

S. aureus isolates [1] = format: cell-based, Staphylococcus aureus
Method: (§1) Minimum inhibitory concentrations (MIC) of KLK, mKLK, and vancomycin were determined using microdilution broth assay according to clinical and laboratory standards institute (CLSI) guidelines with some modifications. Briefly, overnight cultures were diluted in Muller-Hinton broth (MHB; Merck, Germany) to achieve a final density of 5 × 10^5 CFU/ml. A volume of 100 μl of bacterial suspension was added to wells of sterile 96-well plates containing 100 μl of two-fold peptide dilutions, ranging from 0.25 to 256 µg/ml. Vancomycin was used as a positive control in this assay. […] MBC was determined by removing samples from wells with no visible growth, serially diluting, and plating on Mueller Hinton (MH) agar plates for CFU counting.

S. aureus isolates [2] = assay: microbe, parasite or virus in culture; format: cell-based, Staphylococcus aureus
Method: as §1

[3] = test system: preformed S. aureus biofilms; format: cell-based, Staphylococcus aureus
Method: The eradicative activity of KLK and mKLK peptides against preformed S. aureus biofilms was evaluated by determining MBEC, as previously described. The 24-h biofilms developed in TSB in a 96-well plate were washed three times with 200 μl PBS solution. Concentrations of the peptides ranging from 2 to 1024 µg/ml were prepared. A volume of 100 μl of each concentration was added to a corresponding well, and plates were incubated for 18–20 h at 37 °C. Then, wells were washed with sterile PBS solution, and 100 μl of PBS solution was added. The wells were thoroughly scraped with a sterile pipette tip, vortexed and sonicated to release the biofilm cells from the well surface. Subsequently, 10 μl of well contents were plated on MHA. Colonies were counted after 20 h at 37 °C. The MBEC was defined as the lowest concentration of peptide that inhibited bacterial regrowth.

in vitro = conditions: human
Method: (§2) The assay was performed using fresh human blood samples containing citrate phosphate dextrose anticoagulant collected from a blood bank (Iranian Blood Transfusion Organization). Human red blood cells (RBC) were centrifuged at 1700×g for 5 min; then the supernatant was removed and the erythrocyte pellet was diluted 1:100 in PBS to obtain a 1% erythrocyte suspension. […] Then, 50 μl of the 1% erythrocyte suspension and 50 μl of the peptides were mixed and added to wells of a 96-well polypropylene conical bottom microplate and incubated at 37 °C for 1 h. Following centrifugation of the samples at 1700×g for 5 min, 50 μl of the supernatant was transferred to wells of a 96-well flat-bottom plate for the absorbance measurement at 405 nm in a microplate reader. Identical volumes of Triton X-100 (1%) and PBS were used as positive and negative controls, respectively. The selectivity indexes (SI) were also determined as a toxicity indicator.

Human red blood cells = assay: in vitro
Method: as §2

[4] = test system: one MRSA and reference strain (ATCC25923); assay: Time-kill kinetics assay
Method: The peptide-free control was included for each strain. Following incubation at 37 °C for 0, 0.25, 0.5, 1, 2, 4, 5, and 24 h, each sample was serially diluted, plated onto Mueller–Hinton (MH) agar (Merck, Germany) plates and incubated at 37 °C. The viable plate count method was performed after incubation for 24 h and the counts were expressed as Log CFU/ml[44].

CC(C)C[C@@H](NC(=O)[C@H](N)CCCCN)C(=O)N[C@H](CCCCN)C(=O)N[C@H](CC(C)C)C(=O)N[C@H](CC(C)C)C(=O)N[C@H](CC(C)C)C(=O)N[C@H](CC(C)C)C(=O)N[C@H](CC(C)C)C(=O)N[C@H](CCCCN)C(=O)N[C@H](CC(C)C)C(=O)N[C@H](CCCCN)C(N)=O [KLK] (H-[dK][dL][dK][dL][dL][dL][dL][dL][dK][dL][dK]-NH2; N-terminus assumed)
crystal violet absorbance at 570 nm, bacterial attachment, Mean±SD (S. aureus strains; ATCC25923, 1/2MIC, control 2.136±0.01): 1.904±0.08
crystal violet absorbance at 570 nm, bacterial attachment, Mean±SD (S. aureus strains; ATCC25923, 1/4MIC, control 2.136±0.01): 1.965±0.03
crystal violet absorbance at 570 nm, bacterial attachment, Mean±SD (S. aureus strains; ATCC25923, 1/8MIC, control 2.136±0.01): 2.03±0.07
crystal violet absorbance at 570 nm, bacterial attachment, Mean±SD (S. aureus strains; MRSA-1, 1/2MIC, control 1.861±0.02): 1.508±0.03
crystal violet absorbance at 570 nm, bacterial attachment, Mean±SD (S. aureus strains; MRSA-1, 1/4MIC, control 1.861±0.02): 1.712±0.01
crystal violet absorbance at 570 nm, bacterial attachment, Mean±SD (S. aureus strains; MRSA-1, 1/8MIC, control 1.861±0.02): 1.8±0.17
crystal violet absorbance at 570 nm, bacterial attachment, Mean±SD (S. aureus strains; MRSA-2, 1/2MIC, control 2.311±0.005): 2.082±2.02
crystal violet absorbance at 570 nm, bacterial attachment, Mean±SD (S. aureus strains; MRSA-2, 1/4MIC, control 2.311±0.005): 2.146±0.008
crystal violet absorbance at 570 nm, bacterial attachment, Mean±SD (S. aureus strains; MRSA-2, 1/8MIC, control 2.311±0.005): 2.198±0.04
crystal violet absorbance at 570 nm, bacterial attachment, Mean±SD (S. aureus strains; MRSA-3, 1/2MIC, control 1.491±0.06): 1.031±0.07
crystal violet absorbance at 570 nm, bacterial attachment, Mean±SD (S. aureus strains; MRSA-3, 1/4MIC, control 1.491±0.06): 1.369±0.01
crystal violet absorbance at 570 nm, bacterial attachment, Mean±SD (S. aureus strains; MRSA-3, 1/8MIC, control 1.491±0.06): 1.428±0.06
crystal violet absorbance at 570 nm, bacterial attachment, Mean±SD (S. aureus strains; MSSA-1, 1/2MIC, control 2.107±0.08): 1.89±0.002
crystal violet absorbance at 570 nm, bacterial attachment, Mean±SD (S. aureus strains; MSSA-1, 1/4MIC, control 2.107±0.08): 1.925±0.06
crystal violet absorbance at 570 nm, bacterial attachment, Mean±SD (S. aureus strains; MSSA-1, 1/8MIC, control 2.107±0.08): 2.006±0.01
crystal violet absorbance at 570 nm, bacterial attachment, Mean±SD (S. aureus strains; MSSA-2, 1/2MIC, control 2.061±0.01): 1.804±0.03
crystal violet absorbance at 570 nm, bacterial attachment, Mean±SD (S. aureus strains; MSSA-2, 1/8MIC, control 2.061±0.01): 1.958±0.07
MBC (S. aureus isolates [1]; ATCC25923): 4 µg/mL (≈ 3.03 µM)
MBC (S. aureus isolates [1]; MRSA-1): 8 µg/mL (≈ 6.05 µM)
MBC (S. aureus isolates [1]; MRSA-2): 8 µg/mL (≈ 6.05 µM)
MBC (S. aureus isolates [1]; MRSA-3): 8 µg/mL (≈ 6.05 µM)
MBC (S. aureus isolates [1]; MSSA-1): 4 µg/mL (≈ 3.03 µM)
MBC (S. aureus isolates [1]; MSSA-2): 4 µg/mL (≈ 3.03 µM)
MIC (S. aureus isolates [2]; ATCC25923): 4 µg/mL (≈ 3.03 µM)
MIC (S. aureus isolates [2]; MRSA-1): 8 µg/mL (≈ 6.05 µM)
MIC (S. aureus isolates [2]; MRSA-2): 8 µg/mL (≈ 6.05 µM)
MIC (S. aureus isolates [2]; MRSA-3): 8 µg/mL (≈ 6.05 µM)
MIC (S. aureus isolates [2]; MSSA-1): 4 µg/mL (≈ 3.03 µM)
MIC (S. aureus isolates [2]; MSSA-2): 4 µg/mL (≈ 3.03 µM)
MIC (S. aureus isolates [2]; three MRSA isolates): 8 µg/mL (≈ 6.05 µM)
MIC (S. aureus isolates [2]; two MSSA isolates): 4 µg/mL (≈ 3.03 µM)
MBEC ([3]; ATCC25923): 512 µg/mL
MBEC ([3]; MRSA-1): 1024 µg/mL
MBEC ([3]; MRSA-2): 1024 µg/mL
MBEC ([3]; MRSA-3): 1024 µg/mL
MBEC ([3]; MSSA-1): 512 µg/mL
MBEC ([3]; MSSA-2): 512 µg/mL
MBEC, range over isolates ([3]; preformed biofilms): 512 to 1024 µg/mL
hemolysis at 1 h, 1.56 µM (in vitro): 10.4%
hemolysis at 1 h, 3.12 µM (in vitro): 18.3%
hemolysis at 1 h, 6.25 µM (in vitro): 27.1%
hemolysis at 1 h, 12.5 µM (in vitro): 34.2%
hemolysis at 1 h, 25 µM (in vitro): 42.8%
hemolysis at 1 h, 50 µM (in vitro): 71.5%
hemolysis at 1 h, 75 µM (in vitro): 80.1%
hemolysis at 1 h, 100 µM (in vitro): 88.3%
hemolysis at 1 h, 150 µM (in vitro): 92.2%
hemolysis at 1 h, 200 µM (in vitro): 95.4%
HC50 (Human red blood cells): 38.49 µg/mL
HC50 (Human red blood cells; red cells of human, 1 h): 29.1 µM
time after which no regrowth was observed ([4]; ATCC 25923, 1 × MIC (4 μg/ml)): 30 min
time after which no regrowth was observed ([4]; ATCC 25923, 2 × MIC (8 μg/ml)): 15 min
time after which no regrowth was observed ([4]; MRSA, 1 × MIC): 300 min
reduction in viable cell count ([4]; MRSA, 1 × MIC (8 μg/ml), within 2 h): ~ 1 log

Source: publication PMC10817945, “Design of a novel analogue peptide with potent antibiofilm activities against Staphylococcus aureus based upon a sapecin B-derived peptide” (Scientific Reports, 2024)
